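A five-concentration, 48-hour dose response in 96-well plates underlies each endpoint, interpolated linearly between surrounding concentrations. GI50 is the concentration that inhibits growth by half. TGI marks complete inhibition of growth.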
What was measured:
Assay in all cases: NCI tumour cell line growth inhibition, 48 h
MCF7 breast = test system: MCF7 breast
NCI-H460 lung = test system: NCI-H460 lung
SW-620 colon = test system: SW-620 colon
M14 melanoma = test system: M14 melanoma
DU-145 prostate = test system: DU-145 prostate
SNB-75 CNS = test system: SNB-75 CNS
OVCAR-5 ovarian = test system: OVCAR-5 ovarian
A498 renal = test system: A498 renal
HOP-92 NSCLC = test system: HOP-92 NSCLC
SK-MEL-5 melanoma = test system: SK-MEL-5 melanoma
NCI-H522 lung = test system: NCI-H522 lung
SF-268 CNS = test system: SF-268 CNS
CAKI-1 renal = test system: CAKI-1 renal
HT29 colon = test system: HT29 colon
SK-OV-3 ovarian = test system: SK-OV-3 ovarian
786-0 renal = test system: 786-0 renal
OVCAR-4 ovarian = test system: OVCAR-4 ovarian
IGROV1 ovarian = test system: IGROV1 ovarian
KM12 colon = test system: KM12 colon
EKVX NSCLC = test system: EKVX NSCLC
MDA-MB-231 breast = test system: MDA-MB-231 breast
NCI-H23 lung = test system: NCI-H23 lung
MOLT-4 leukemia = test system: MOLT-4 leukemia
PC-3 prostate = test system: PC-3 prostate
BT-549 breast = test system: BT-549 breast
UO-31 renal = test system: UO-31 renal
SR leukemia = test system: SR leukemia
SK-MEL-2 melanoma = test system: SK-MEL-2 melanoma
HL-60(TB) leukemia = test system: HL-60(TB) leukemia
K-562 leukemia = test system: K-562 leukemia
HCT-15 colon = test system: HCT-15 colon
SF-539 CNS = test system: SF-539 CNS
U251 CNS = test system: U251 CNS
HCC-2998 colon = test system: HCC-2998 colon
UACC-257 melanoma = test system: UACC-257 melanoma
ACHN renal = test system: ACHN renal
HS 578T breast = test system: HS 578T breast
SK-MEL-28 melanoma = test system: SK-MEL-28 melanoma
SNB-19 CNS = test system: SNB-19 CNS
SN12C renal = test system: SN12C renal
RXF 393 renal = test system: RXF 393 renal
LOX IMVI melanoma = test system: LOX IMVI melanoma
NCI-H226 lung = test system: NCI-H226 lung
MDA-MB-435 = test system: MDA-MB-435
RPMI-8226 leukemia = test system: RPMI-8226 leukemia
TK-10 renal = test system: TK-10 renal
A549 NSCLC = test system: A549 NSCLC
CCRF-CEM leukemia = test system: CCRF-CEM leukemia
UACC-62 melanoma = test system: UACC-62 melanoma
SF-295 CNS = test system: SF-295 CNS
MALME-3M melanoma = test system: MALME-3M melanoma
HOP-62 NSCLC = test system: HOP-62 NSCLC
COLO 205 colon = test system: COLO 205 colon
NCI/ADR-RES ovarian = test system: NCI/ADR-RES ovarian

Q: `CC1(C)CC[C@]23CC[C@]4(C)[C@H](CC[C@@H]5[C@@]6(C)CCCN(CO)C(C)(C)[C@@H]6CC[C@]54C)[C@H]2[C@H]1OC3` was tested. Which GI50 (MCF7 breast) did it give?
A: Its GI50 is 2.2 µM.

Q: And the TGI (MCF7 breast)?
A: Its TGI is 5.64 µM.

Q: What about the GI50 (NCI-H460 lung) of the same molecule?
A: The GI50 was 1.88 µM.

Q: What about the TGI (NCI-H460 lung) of the same molecule?
A: Its TGI is 3.7 µM.

Q: What about the GI50 (SW-620 colon) of the same molecule?
A: The GI50 was 1.68 µM.

Q: What about the TGI (SW-620 colon) of the same molecule?
A: Its TGI is 3.24 µM.

Q: What about the GI50 (M14 melanoma) of the same molecule?
A: Its GI50 is 1.8 µM.

Q: And the TGI (M14 melanoma)?
A: Its TGI is 4.04 µM.

Q: What about the GI50 (DU-145 prostate) of the same molecule?
A: Its GI50 is 3 µM.

Q: And the TGI (DU-145 prostate)?
A: The TGI was 8.95 µM.

Q: What about the GI50 (SNB-75 CNS) of the same molecule?
A: Its GI50 is 5.02 µM.

Q: What about the TGI (SNB-75 CNS) of the same molecule?
A: The TGI was 19.6 µM.

Q: And the GI50 (OVCAR-5 ovarian)?
A: The GI50 was 2.44 µM.

Q: And the TGI (OVCAR-5 ovarian)?
A: Its TGI is 6.7 µM.

Q: What about the GI50 (A498 renal) of the same molecule?
A: Its GI50 is 12 µM.

Q: What about the TGI (A498 renal) of the same molecule?
A: The TGI was 25.6 µM.

Q: And the GI50 (HOP-92 NSCLC)?
A: Its GI50 is 1.68 µM.

Q: And the TGI (HOP-92 NSCLC)?
A: Its TGI is 4.75 µM.

Q: And the GI50 (SK-MEL-5 melanoma)?
A: The GI50 was 16.1 µM.

Q: What about the TGI (SK-MEL-5 melanoma) of the same molecule?
A: The TGI was 30.7 µM.

Q: And the GI50 (NCI-H522 lung)?
A: Its GI50 is 15.9 µM.

Q: What about the TGI (NCI-H522 lung) of the same molecule?
A: The TGI was 31.7 µM.

Q: And the GI50 (SF-268 CNS)?
A: The GI50 was 6.61 µM.

Q: And the TGI (SF-268 CNS)?
A: Its TGI is 22.8 µM.

Q: What about the GI50 (CAKI-1 renal) of the same molecule?
A: Its GI50 is 1.54 µM.

Q: What about the TGI (CAKI-1 renal) of the same molecule?
A: The TGI was 3.3 µM.

Q: What about the GI50 (HT29 colon) of the same molecule?
A: The GI50 was 1.86 µM.

Q: What about the TGI (HT29 colon) of the same molecule?
A: The TGI was 3.86 µM.

Q: And the GI50 (SK-OV-3 ovarian)?
A: The GI50 was 13.9 µM.

Q: What about the TGI (SK-OV-3 ovarian) of the same molecule?
A: The TGI was 27.7 µM.

Q: What about the GI50 (786-0 renal) of the same molecule?
A: The GI50 was 1.84 µM.

Q: What about the TGI (786-0 renal) of the same molecule?
A: The TGI was 3.4 µM.

Q: And the GI50 (OVCAR-4 ovarian)?
A: Its GI50 is 3.42 µM.

Q: What about the TGI (OVCAR-4 ovarian) of the same molecule?
A: The TGI was 13.4 µM.

Q: And the GI50 (IGROV1 ovarian)?
A: The GI50 was 1.91 µM.

Q: What about the TGI (IGROV1 ovarian) of the same molecule?
A: Its TGI is 4 µM.

Q: And the GI50 (KM12 colon)?
A: Its GI50 is 1.73 µM.

Q: What about the TGI (KM12 colon) of the same molecule?
A: Its TGI is 3.5 µM.

Q: What about the GI50 (EKVX NSCLC) of the same molecule?
A: The GI50 was 5.7 µM.

Q: And the TGI (EKVX NSCLC)?
A: Its TGI is 21.3 µM.

Q: And the GI50 (MDA-MB-231 breast)?
A: The GI50 was 1.96 µM.

Q: What about the TGI (MDA-MB-231 breast) of the same molecule?
A: Its TGI is 4.5 µM.

Q: What about the GI50 (NCI-H23 lung) of the same molecule?
A: The GI50 was 2.19 µM.

Q: What about the TGI (NCI-H23 lung) of the same molecule?
A: The TGI was 5.75 µM.

Q: What about the GI50 (MOLT-4 leukemia) of the same molecule?
A: The GI50 was 2.99 µM.

Q: What about the TGI (MOLT-4 leukemia) of the same molecule?
A: Its TGI is 10.2 µM.

Q: What about the GI50 (PC-3 prostate) of the same molecule?
A: Its GI50 is 2.91 µM.

Q: And the TGI (PC-3 prostate)?
A: The TGI was 13.9 µM.

Q: What about the GI50 (BT-549 breast) of the same molecule?
A: Its GI50 is 8.31 µM.

Q: And the TGI (BT-549 breast)?
A: The TGI was 26 µM.

Q: What about the GI50 (UO-31 renal) of the same molecule?
A: Its GI50 is 9.62 µM.

Q: What about the TGI (UO-31 renal) of the same molecule?
A: The TGI was 23.6 µM.

Q: And the GI50 (SR leukemia)?
A: The GI50 was 1.87 µM.

Q: And the TGI (SR leukemia)?
A: Its TGI is 13.1 µM.

Q: And the GI50 (SK-MEL-2 melanoma)?
A: The GI50 was 2.5 µM.

Q: And the TGI (SK-MEL-2 melanoma)?
A: The TGI was 7.68 µM.

Q: What about the GI50 (HL-60(TB) leukemia) of the same molecule?
A: The GI50 was 2.01 µM.

Q: What about the TGI (HL-60(TB) leukemia) of the same molecule?
A: Its TGI is 5.07 µM.

Q: What about the GI50 (K-562 leukemia) of the same molecule?
A: Its GI50 is 2.25 µM.

Q: What about the TGI (K-562 leukemia) of the same molecule?
A: The TGI was > 100 µM.

Q: What about the GI50 (HCT-15 colon) of the same molecule?
A: Its GI50 is 1.75 µM.

Q: What about the TGI (HCT-15 colon) of the same molecule?
A: The TGI was 3.71 µM.

Q: And the GI50 (SF-539 CNS)?
A: Its GI50 is 2.15 µM.

Q: What about the TGI (SF-539 CNS) of the same molecule?
A: Its TGI is 4.95 µM.

Q: What about the GI50 (U251 CNS) of the same molecule?
A: The GI50 was 2.05 µM.

Q: What about the TGI (U251 CNS) of the same molecule?
A: The TGI was 4.7 µM.

Q: And the GI50 (HCC-2998 colon)?
A: Its GI50 is 1.76 µM.

Q: And the TGI (HCC-2998 colon)?
A: Its TGI is 3.35 µM.

Q: And the GI50 (UACC-257 melanoma)?
A: Its GI50 is 10.6 µM.

Q: And the TGI (UACC-257 melanoma)?
A: The TGI was 24.6 µM.

Q: What about the GI50 (ACHN renal) of the same molecule?
A: The GI50 was 1.87 µM.

Q: And the TGI (ACHN renal)?
A: The TGI was 3.6 µM.

Q: And the GI50 (HS 578T breast)?
A: The GI50 was 3.32 µM.

Q: What about the TGI (HS 578T breast) of the same molecule?
A: Its TGI is 17.1 µM.

Q: What about the GI50 (SK-MEL-28 melanoma) of the same molecule?
A: The GI50 was 1.97 µM.

Q: And the TGI (SK-MEL-28 melanoma)?
A: Its TGI is 3.78 µM.

Q: And the GI50 (SNB-19 CNS)?
A: The GI50 was 3.09 µM.

Q: What about the TGI (SNB-19 CNS) of the same molecule?
A: The TGI was 12 µM.

Q: What about the GI50 (SN12C renal) of the same molecule?
A: Its GI50 is 4.89 µM.

Q: And the TGI (SN12C renal)?
A: Its TGI is 18.6 µM.

Q: What about the GI50 (RXF 393 renal) of the same molecule?
A: The GI50 was 3.27 µM.

Q: And the TGI (RXF 393 renal)?
A: Its TGI is 18 µM.

Q: And the GI50 (LOX IMVI melanoma)?
A: The GI50 was 1.57 µM.

Q: And the TGI (LOX IMVI melanoma)?
A: Its TGI is 2.93 µM.

Q: And the GI50 (NCI-H226 lung)?
A: Its GI50 is 2.62 µM.

Q: And the TGI (NCI-H226 lung)?
A: Its TGI is 7.85 µM.

Q: And the GI50 (MDA-MB-435)?
A: Its GI50 is 2.4 µM.

Q: What about the TGI (MDA-MB-435) of the same molecule?
A: The TGI was 6.67 µM.

Q: And the GI50 (RPMI-8226 leukemia)?
A: Its GI50 is 2.88 µM.

Q: And the TGI (RPMI-8226 leukemia)?
A: Its TGI is > 100 µM.

Q: What about the GI50 (TK-10 renal) of the same molecule?
A: Its GI50 is 14 µM.

Q: What about the TGI (TK-10 renal) of the same molecule?
A: The TGI was 28.7 µM.

Q: What about the GI50 (A549 NSCLC) of the same molecule?
A: The GI50 was 2.76 µM.

Q: What about the TGI (A549 NSCLC) of the same molecule?
A: The TGI was 8.98 µM.

Q: What about the GI50 (CCRF-CEM leukemia) of the same molecule?
A: Its GI50 is 3.49 µM.

Q: What about the TGI (CCRF-CEM leukemia) of the same molecule?
A: Its TGI is > 100 µM.

Q: And the GI50 (UACC-62 melanoma)?
A: The GI50 was 4.83 µM.

Q: What about the TGI (UACC-62 melanoma) of the same molecule?
A: The TGI was 17.8 µM.

Q: What about the GI50 (SF-295 CNS) of the same molecule?
A: Its GI50 is 1.96 µM.

Q: And the TGI (SF-295 CNS)?
A: The TGI was 3.77 µM.

Q: And the GI50 (MALME-3M melanoma)?
A: The GI50 was 2.64 µM.

Q: And the TGI (MALME-3M melanoma)?
A: The TGI was 8.69 µM.

Q: And the GI50 (HOP-62 NSCLC)?
A: The GI50 was 2.91 µM.

Q: And the TGI (HOP-62 NSCLC)?
A: The TGI was 12.4 µM.

Q: What about the GI50 (COLO 205 colon) of the same molecule?
A: The GI50 was 1.7 µM.

Q: And the TGI (COLO 205 colon)?
A: The TGI was 3.35 µM.

Q: What about the GI50 (NCI/ADR-RES ovarian) of the same molecule?
A: Its GI50 is 2.02 µM.

Q: What about the TGI (NCI/ADR-RES ovarian) of the same molecule?
A: The TGI was 4.6 µM.
